The source of these data is ChEMBL document CHEMBL1141022, “1,2,3-Triazole derivatives as new cannabinoid CB1 receptor antagonists” (Bioorg Med Chem Lett, 2009).

SMILES strings stand for the structures. Bounds are passed on as bounds.

A word on the IC50: it is the concentration that gives 50% inhibition. A low value points to inhibition by little substance. As a reminder, the EC50 is the midpoint of the concentration-response curve. Broadly, the inhibition is the change of the read-out against control, counted positive when it falls. The low end stands for a weak effect, the high end for a strong effect.

The species named for one test is Homo sapiens. In words: Selectivity ratio of IC50 for human CB2 receptor to IC50 for human CB1 receptor.
The target in test [1] is T1, Cannabinoid receptor 1 (Homo sapiens, UniProt P21554). Put plainly: biochemical. In kind it is cell-based, HEK293.
T1 sequence (P21554 whole entry): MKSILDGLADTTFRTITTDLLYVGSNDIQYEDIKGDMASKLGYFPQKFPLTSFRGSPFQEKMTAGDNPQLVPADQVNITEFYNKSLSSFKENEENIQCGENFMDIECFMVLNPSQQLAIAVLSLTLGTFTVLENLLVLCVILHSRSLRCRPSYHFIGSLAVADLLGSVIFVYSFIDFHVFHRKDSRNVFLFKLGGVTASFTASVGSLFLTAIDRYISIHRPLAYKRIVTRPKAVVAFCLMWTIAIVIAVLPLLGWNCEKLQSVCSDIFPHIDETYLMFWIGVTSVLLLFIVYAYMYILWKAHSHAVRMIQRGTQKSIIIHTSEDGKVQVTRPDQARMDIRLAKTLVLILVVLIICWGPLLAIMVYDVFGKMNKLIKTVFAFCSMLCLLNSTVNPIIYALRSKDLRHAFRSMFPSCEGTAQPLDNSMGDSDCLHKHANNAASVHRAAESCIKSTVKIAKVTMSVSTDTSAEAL
In test [2] the target is T1, Cannabinoid receptor 1. In words: Antagonist activity at human CB1 receptor expressed in HEK293 cells assessed as inhibition of Eu-GTP binding. It is filed as cell-based.
In the next test the target is Cannabinoid receptor 2 (Homo sapiens, UniProt P34972). Put plainly: Displacement of [3H]CP-55940 from human CB2 receptor expressed in HEK293 cells. In kind it is cell-based.
Sequence of Cannabinoid receptor 2 (P34972 whole entry): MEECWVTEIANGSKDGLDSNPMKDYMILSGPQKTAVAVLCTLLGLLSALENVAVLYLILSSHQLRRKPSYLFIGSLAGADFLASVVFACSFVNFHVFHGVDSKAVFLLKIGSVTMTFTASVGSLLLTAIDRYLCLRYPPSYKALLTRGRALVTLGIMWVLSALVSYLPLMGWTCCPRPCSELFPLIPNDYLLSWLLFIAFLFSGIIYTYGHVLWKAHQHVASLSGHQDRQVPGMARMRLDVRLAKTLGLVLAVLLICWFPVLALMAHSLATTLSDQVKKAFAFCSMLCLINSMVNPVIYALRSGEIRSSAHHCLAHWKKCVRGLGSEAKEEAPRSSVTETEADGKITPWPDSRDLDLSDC
Test [3] concerns the target T1, Cannabinoid receptor 1. In words: Displacement of [3H]CP-55940 from human CB1 receptor expressed in HEK293 cells at 10 uM. It is filed as cell-based.

For the compound `O=C(Cn1nc(-c2ccc(Cl)cc2Cl)c(-c2ccc(Cl)cc2Cl)n1)NCc1cc(F)ccc1F`, the Ratio IC50 in the test listed under Homo sapiens is greater than 1000. Also, the results for the 50% inhibitory concentration (IC50) at Cannabinoid receptor 1 [1] and on Cannabinoid receptor 2 were 22.6 nM and greater than 10000 nM, respectively. Further, the EC50 at Cannabinoid receptor 1 [2] is 22 nM.

On to `O=C(NC1CCCCC1)n1nc(-c2ccc(Cl)cc2)c(-c2ccc(Cl)cc2)n1`, for which the Ratio IC50 in the test filed under Homo sapiens was greater than 1000. Moreover, the inhibition at Cannabinoid receptor 1 [3] was found to be 19.9%.

On to `O=C(NCc1ccccc1)n1nc(-c2ccc(Cl)cc2Cl)c(-c2ccc(Cl)cc2Cl)n1`, for which the Ratio IC50 in the test listed under Homo sapiens was greater than 1000. Also, the inhibition at Cannabinoid receptor 1 [3] came to 23.8%.

Turning to `O=C(Cn1nc(-c2ccc(Cl)cc2Cl)c(-c2ccc(Cl)cc2Cl)n1)Oc1ccccc1`, the Ratio IC50 in the test filed under Homo sapiens is greater than 1000. At Cannabinoid receptor 1 [3], the inhibition was determined as 14.3%.

For the compound `O=C(NC12CC3CC(CC(C3)C1)C2)n1nc(-c2ccc(Cl)cc2)c(-c2ccc(Cl)cc2Cl)n1`, the Ratio IC50 in the test filed under Homo sapiens was greater than 1000. On Cannabinoid receptor 1 [3], this compound came in with an inhibition of 34.5%.

Regarding `O=C(Cn1nc(-c2ccc(Cl)cc2Cl)c(-c2ccc(Cl)cc2Cl)n1)NCc1ccccc1`, the Ratio IC50 in the test filed under Homo sapiens is greater than 1000. Further, the EC50 at Cannabinoid receptor 1 [2] worked out at 87 nM. Besides, the IC50 at Cannabinoid receptor 2 was greater than 10000 nM.

Consider `O=C(Cn1nc(-c2ccc(Cl)cc2)c(-c2ccc(Cl)cc2Cl)n1)NCc1ccc(F)cc1`, for which the Ratio IC50 in the test listed under Homo sapiens is greater than 1000. Further, the EC50 at Cannabinoid receptor 1 [2] was 235 nM. In addition, the IC50 at Cannabinoid receptor 2 was greater than 10000 nM.

Take `CCCCOC(=O)Cn1nnc(-c2ccc(Cl)cc2)c1-c1ccc(Cl)cc1`: in the test listed under Homo sapiens, the Ratio IC50 is greater than 1000. This compound also returned an inhibition on Cannabinoid receptor 1 [3] of 64.1%.

With `O=C(NC1CCCCC1)n1nc(-c2ccc(Cl)cc2Cl)c(-c2ccc(Cl)cc2Cl)n1`, the Ratio IC50 in the test listed under Homo sapiens was greater than 1000. Also, at Cannabinoid receptor 1 [3], the inhibition worked out at 29.2%.

Regarding `COc1ccc(CNC(=O)Cn2nc(-c3ccc(Cl)cc3Cl)c(-c3ccc(Cl)cc3Cl)n2)cc1`, the Ratio IC50 in the test filed under Homo sapiens was greater than 1000. The EC50 on Cannabinoid receptor 1 [2] was determined as 56.2 nM. Further, on Cannabinoid receptor 2, the IC50 is greater than 10000 nM.

`O=C(NCc1ccccc1)n1nc(-c2ccc(Cl)cc2)c(-c2ccc(Cl)cc2Cl)n1`: in the test filed under Homo sapiens, the Ratio IC50 was greater than 1000. Moreover, on Cannabinoid receptor 1 [3], the inhibition amounted to 18.6%.

For `O=C(NC12CC3CC(CC(C3)C1)C2)n1nc(-c2ccc(Cl)cc2Cl)c(-c2ccc(Cl)cc2Cl)n1`, the Ratio IC50 in the test filed under Homo sapiens was greater than 1000. For the same compound, the inhibition at Cannabinoid receptor 1 [3] is 78.9%.

Turning to `O=C(Cn1nc(-c2ccc(Cl)cc2Cl)c(-c2ccc(Cl)cc2Cl)n1)NCc1ccccc1Cl`, the Ratio IC50 in the test listed under Homo sapiens is greater than 1000. The EC50 on Cannabinoid receptor 1 [2] stood at 12.2 nM. On Cannabinoid receptor 2, this compound yielded an IC50 greater than 10000 nM.

With `O=C(Cn1nnc(-c2ccc(Cl)cc2)c1-c1ccc(Cl)cc1)N1CCCCC1`, in the test listed under Homo sapiens, the Ratio IC50 is greater than 1000. Further, the inhibition at Cannabinoid receptor 1 [3] came out at 33%.

For `O=C(Cn1nc(-c2ccc(Cl)cc2Cl)c(-c2ccc(Cl)cc2Cl)n1)NCc1ccc(Cl)cc1`, the Ratio IC50 in the test filed under Homo sapiens is greater than 1000. Besides, the EC50 on Cannabinoid receptor 1 [2] is 17.8 nM. This compound showed an IC50 at Cannabinoid receptor 2 greater than 10000 nM.

Consider `O=C(Cn1nc(-c2ccc(Cl)cc2)c(-c2ccc(Cl)cc2Cl)n1)NCc1ccccc1`, for which the Ratio IC50 in the test listed under Homo sapiens was greater than 1000. Besides, the EC50 at Cannabinoid receptor 1 [2] was 216 nM. The IC50 on Cannabinoid receptor 2 is greater than 10000 nM.

As for `CCCCOC(=O)Cn1nnc(-c2ccc(Cl)cc2Cl)c1-c1ccc(Cl)cc1Cl`, the Ratio IC50 in the test filed under Homo sapiens is greater than 1000. On Cannabinoid receptor 1 [3], the inhibition was found to be 46.1%.

Turning to `O=C(Cn1nc(-c2ccc(Cl)cc2Cl)c(-c2ccc(Cl)cc2Cl)n1)Nc1ccccc1`, in the test filed under Homo sapiens, the Ratio IC50 is greater than 1000. In addition, on Cannabinoid receptor 1 [2], the EC50 was 136 nM. For the same compound, on Cannabinoid receptor 2, the IC50 is greater than 10000 nM.

`O=C(Cn1nc(-c2ccc(Cl)cc2Cl)c(-c2ccc(Cl)cc2Cl)n1)NC1CCCCC1`: the Ratio IC50 in the test listed under Homo sapiens is greater than 1000. Further, the EC50 on Cannabinoid receptor 1 [2] was determined as 204 nM. In addition, the IC50 at Cannabinoid receptor 2 is greater than 10000 nM.

For `O=C(Cn1nc(-c2ccc(Cl)cc2Cl)c(-c2ccc(Cl)cc2Cl)n1)NCc1cccc(F)c1`, the Ratio IC50 in the test listed under Homo sapiens was greater than 1000. At Cannabinoid receptor 1 [2], the EC50 amounted to 35.1 nM. Further, the IC50 at Cannabinoid receptor 2 is greater than 10000 nM.

Take `O=C(Cn1nc(-c2ccc(Cl)cc2Cl)c(-c2ccc(Cl)cc2Cl)n1)N1CCCCC1`: the IC50 on Cannabinoid receptor 2 was found to be 5900 nM.

Turning to `O=C(NC1CCCCC1)n1nc(-c2ccc(Cl)cc2)c(-c2ccc(Cl)cc2Cl)n1`, the Ratio IC50 in the test listed under Homo sapiens is greater than 1000. At Cannabinoid receptor 1 [3], the inhibition was found to be 30.5%.

Consider `O=C(Cn1nc(-c2ccc(Cl)cc2)c(-c2ccc(Cl)cc2Cl)n1)NCc1ccccc1F`, for which the Ratio IC50 in the test filed under Homo sapiens is greater than 1000. On Cannabinoid receptor 1 [2], the EC50 amounted to 256 nM. Moreover, at Cannabinoid receptor 2, the half-maximal inhibitory concentration (IC50) was greater than 10000 nM.

Take `O=C(Cn1nc(-c2ccc(Cl)cc2Cl)c(-c2ccc(Cl)cc2Cl)n1)NCc1ccc(F)cc1`: the Ratio IC50 in the test filed under Homo sapiens was greater than 1000. The EC50 at Cannabinoid receptor 1 [2] worked out at 50.7 nM. The same compound displayed an IC50 at Cannabinoid receptor 2 greater than 10000 nM.

As to `O=C(Cn1nc(-c2ccc(Cl)cc2Cl)c(-c2ccc(Cl)cc2Cl)n1)NCc1ccccc1F`, the Ratio IC50 in the test filed under Homo sapiens is greater than 1000. Further, the EC50 at Cannabinoid receptor 1 [2] came out at 23.5 nM. This compound yielded a concentration for half-maximal inhibition (IC50) at Cannabinoid receptor 2 greater than 10000 nM.

Consider `O=C(NC12CC3CC(CC(C3)C1)C2)n1nc(-c2ccc(Cl)cc2)c(-c2ccc(Cl)cc2)n1`, for which, in the test filed under Homo sapiens, the Ratio IC50 is greater than 1000. The compound also registered an inhibition at Cannabinoid receptor 1 [3] of 19.7%.

Consider `CCCCOC(=O)Cn1nc(-c2ccc(Cl)cc2Cl)c(-c2ccc(Cl)cc2Cl)n1`, for which the Ratio IC50 in the test filed under Homo sapiens was greater than 1000.

Regarding `O=C(Cn1nnc(-c2ccc(Cl)cc2Cl)c1-c1ccc(Cl)cc1Cl)N1CCCCC1`, the Ratio IC50 in the test listed under Homo sapiens is greater than 1000. Moreover, the inhibition at Cannabinoid receptor 1 [3] came to 55.7%.
